Assay results taken from patent US12098144B2, “Piperazine indazole glucocorticoid receptor antagonists” (Corcept Therapeutics Incorporated, priority 2021, dated 2024).
pKi: −log10 of the molar value.

Molecular target: T1, glucocorticoid receptor (Homo sapiens, UniProt P04150)
T1 construct: endogenous in cells; ATCC cat
T1 sequence (P04150 1-777): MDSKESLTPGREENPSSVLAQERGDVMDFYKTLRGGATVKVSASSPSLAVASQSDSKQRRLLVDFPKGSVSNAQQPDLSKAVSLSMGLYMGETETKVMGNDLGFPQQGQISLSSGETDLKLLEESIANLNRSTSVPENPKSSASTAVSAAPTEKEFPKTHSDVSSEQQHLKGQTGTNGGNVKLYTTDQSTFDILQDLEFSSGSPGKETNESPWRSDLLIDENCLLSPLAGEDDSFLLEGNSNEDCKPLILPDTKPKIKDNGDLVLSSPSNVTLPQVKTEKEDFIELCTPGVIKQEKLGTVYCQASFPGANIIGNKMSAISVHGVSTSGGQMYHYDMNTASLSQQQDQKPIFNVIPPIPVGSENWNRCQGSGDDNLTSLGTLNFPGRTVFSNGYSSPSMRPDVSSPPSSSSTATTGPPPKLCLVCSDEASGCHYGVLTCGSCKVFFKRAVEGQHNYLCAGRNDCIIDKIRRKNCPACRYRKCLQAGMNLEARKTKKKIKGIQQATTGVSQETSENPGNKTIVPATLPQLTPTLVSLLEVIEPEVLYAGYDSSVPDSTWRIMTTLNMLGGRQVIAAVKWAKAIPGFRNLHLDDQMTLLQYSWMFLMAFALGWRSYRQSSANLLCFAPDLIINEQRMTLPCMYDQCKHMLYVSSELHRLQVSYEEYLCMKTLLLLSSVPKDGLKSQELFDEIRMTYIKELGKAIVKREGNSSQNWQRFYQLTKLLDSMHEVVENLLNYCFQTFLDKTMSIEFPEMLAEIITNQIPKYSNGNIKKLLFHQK
Test: Hep G2 TAT Ki: inhibition of dexamethasone-induced TAT in HepG2 cells (96 well)
Type: cell-based
Conditions: challenge of 100 nM dexamethasone, IC50 converted to Ki by Cheng and Prusoff equation
Method: Glucocorticoid mediated activation of TAT occurs by transactivation of glucocorticoid response elements in the TAT promoter by glucocorticoid receptor-agonist complex.
HepG2 cells were cultured using MEME media supplemented with 10% (v/v) foetal bovine serum; 2 mM L-glutamine and 1% (v/v) NEAA at 37° C., 5%/95% (v/v) CO2/air.
Compounds were serially half log diluted in 100% (v/v) dimethylsulphoxide from a 10 mM stock.
HepG2 cells were then lysed with 30 μl of cell lysis buffer containing a protease inhibitor cocktail for 15 minutes at 4° C. […] After 2 hours incubation at 37° C. the reaction was terminated by the addition of 15 μl of 10M aqueous potassium hydroxide solution, and the plates incubated for a further 30 minutes at 37° C.
[compound] and fitting the data to a 4 parameter logistic equation.

Compound	pKi
Cc1cc2c(cnn2-c2ccc(F)cc2)cc1C1CN(S(=O)(=O)c2cnn(C)n2)CCN1C1CCCC1 (single isomer, unassigned) [Example 27, 5-(1-cyclopentyl-4-((2-methyl-2H-1,2,3-triazol-4-yl)sulfonyl)piperazin-2-yl)-1-(4-fluorophenyl)-6-methyl-1H-indazole]	7.33
Cc1cc2c(cnn2-c2ccc(F)cc2)cc1C1CN(S(=O)(=O)c2ccn(C)n2)CCN1CC(C)C (stereo not drawn) [Example 42, 1-(4-fluorophenyl)-5-(1-isobutyl-4-((1-methyl-1H-pyrazol-3-yl)sulfonyl)piperazin-2-yl)-6-methyl-1H-indazole]	7.40
CC(C)CN1CCN(S(=O)(=O)c2cnn(C)n2)CC1c1cc2cnn(-c3ccc(F)cc3)c2cc1Cl (stereo not drawn) [Example 24, 6-chloro-1-(4-fluorophenyl)-5-(1-isobutyl-4-((2-methyl-2H-1,2,3-triazol-4-yl)sulfonyl)piperazin-2-yl)-1H-indazole]	7.14
COCCS(=O)(=O)N1CCN(CC(C)C)C(c2cc3cnn(-c4ccc(F)cc4)c3cc2C)C1 (single isomer, unassigned) [Example 45, 1-(4-fluorophenyl)-5-(1-isobutyl-4-((2-methoxyethyl)sulfonyl)piperazin-2-yl)-6-methyl-1H-indazole]	6.29
Cc1cc2c(cnn2-c2ccc(F)cc2)cc1C1CN(S(=O)(=O)c2cnn(C)n2)C(C)CN1CC(C)C (stereo not drawn) [Example 89, 1-(4-fluorophenyl)-5-(1-isobutyl-5-methyl-4-((2-methyl-2H-1,2,3-triazol-4-yl)sulfonyl)piperazin-2-yl)-6-methyl-1H-indazole]	7.47
Cc1cc2c(cnn2-c2ccc(F)cc2)cc1C1CN(S(=O)(=O)c2conc2C)CCN1CC(C)C (single isomer, unassigned) [Example 56, 4-((3-(1-(4-fluorophenyl)-6-methyl-1H-indazol-5-yl)-4-isobutylpiperazin-1-yl)sulfonyl)-3-methylisoxazole]	7.19
Cc1cc2c(cnn2-c2ccc(F)cc2)cc1C1CN(S(=O)(=O)c2cnn(C)n2)CCN1CC(C)C (single isomer, unassigned) [Example 10, 1-(4-fluorophenyl)-5-(1-isobutyl-4-((2-methyl-2H-1,2,3-triazol-4-yl)sulfonyl)piperazin-2-yl)-6-methyl-1H-indazole]	6.37
Cc1cc2c(cnn2-c2ccc(F)cc2)cc1C1CN(S(=O)(=O)c2ccc(C(F)(F)F)nc2)CCN1CC(C)C (single isomer, unassigned) [Example 102, 1-(4-fluorophenyl)-5-(1-isobutyl-4-((6-(trifluoromethyl)pyridin-3-yl)sulfonyl)piperazin-2-yl)-6-methyl-1H-indazole]	7.41
Cc1cc2c(cnn2-c2ccc(F)cc2)cc1C1CN(S(=O)(=O)c2ccn(C)n2)CCN1CC(C)C (single isomer, unassigned) [Example 20, 1-(4-fluorophenyl)-5-(1-isobutyl-4-((1-methyl-1H-pyrazol-3-yl)sulfonyl)piperazin-2-yl)-6-methyl-1H-indazole]	6.89
Cc1cc2c(cnn2-c2ccc(F)cc2)cc1C1CN(S(=O)(=O)c2cnn(C)n2)CCN1Cc1ccon1 (single isomer, unassigned) [Example 81, 3-((2-(1-(4-fluorophenyl)-6-methyl-1H-indazol-5-yl)-4-((2-methyl-2H-1,2,3-triazol-4-yl)sulfonyl)piperazin-1-yl)methyl)isoxazole]	7.14
Cc1cc2c(cnn2-c2ccc(F)cc2)cc1C1CN(S(=O)(=O)c2cnn(C3CCOCC3)c2)CCN1CC(C)C (single isomer, unassigned) [Example 54, 1-(4-fluorophenyl)-5-(1-isobutyl-4-((1-(tetrahydro-2H-pyran-4-yl)-1H-pyrazol-4-yl)sulfonyl)piperazin-2-yl)-6-methyl-1H-indazole]	7.51
Cc1cc2c(cnn2-c2ccc(F)cc2)cc1C1CN(S(=O)(=O)c2cnn(C)n2)CCN1Cc1ccccn1 (stereo not drawn) [Example 70, 1-(4-fluorophenyl)-6-methyl-5-(4-((2-methyl-2H-1,2,3-triazol-4-yl)sulfonyl)-1-(pyridin-2-ylmethyl)piperazin-2-yl)-1H-indazole]	6.77
COCCn1cc(S(=O)(=O)N2CCN(CC(C)C)C(c3cc4cnn(-c5ccc(F)cc5)c4cc3C)C2)cn1 (stereo not drawn) [Example 9, 1-(4-fluorophenyl)-5-(1-isobutyl-4-((1-(2-methoxyethyl)-1H-pyrazol-4-yl)sulfonyl)piperazin-2-yl)-6-methyl-1H-indazole]	7.14
Cc1cc2c(cnn2-c2ccc(F)cc2)cc1C1CN(S(=O)(=O)c2cnccc2C)CCN1CCC(F)(F)F (single isomer, unassigned) [Example 138, 1-(4-fluorophenyl)-6-methyl-5-(4-((4-methylpyridin-3-yl)sulfonyl)-1-(3,3,3-trifluoropropyl)piperazin-2-yl)-1H-indazole]	7.46
Cc1cc2c(cnn2-c2ccc(F)cc2)cc1C1C(=O)N(S(=O)(=O)c2cnn(C)n2)CCN1CC(C)C (stereo not drawn) [Example 152, 3-(1-(4-fluorophenyl)-6-methyl-1H-indazol-5-yl)-4-isobutyl-1-((2-methyl-2H-1,2,3-triazol-4-yl)sulfonyl)piperazin-2-one]	6.92

Molecules with a higher pKi, results first:

pKi	Compound
7.82	CCn1cc(S(=O)(=O)N2CCN(CC(C)C(F)(F)F)C(c3cc4cnn(-c5ccc(F)cc5)c4cc3C)C2)cn1 (single isomer, unassigned) [Example 144, 5-(4-((1-ethyl-1H-pyrazol-4-yl)sulfonyl)-1-(3,3,3-trifluoro-2-methylpropyl)piperazin-2-yl)-1-(4-fluorophenyl)-6-methyl-1H-indazole]
7.72	Cc1nc(S(=O)(=O)N2CCN(CC(C)C)C(c3cc4cnn(-c5ccc(F)cc5)c4cc3C)C2)cs1 (single isomer, unassigned) [Example 99, 4-((3-(1-(4-fluorophenyl)-6-methyl-1H-indazol-5-yl)-4-isobutylpiperazin-1-yl)sulfonyl)-2-methylthiazole]
7.64	Cc1cc2c(cnn2-c2ccc(F)cc2)cc1C1CN(S(=O)(=O)c2cccnc2)CCN1CC(C)C (single isomer, unassigned) [Example 97, 1-(4-fluorophenyl)-5-(1-isobutyl-4-(pyridin-3-ylsulfonyl)piperazin-2-yl)-6-methyl-1H-indazole]
7.60	Cc1cc2c(cnn2-c2ccc(F)cc2)cc1C1CN(S(=O)(=O)C2CCC2)CCN1CC(C)C (single isomer, unassigned) [Example 116, 5-(4-(cyclobutylsulfonyl)-1-isobutylpiperazin-2-yl)-1-(4-fluorophenyl)-6-methyl-1H-indazole]
7.72	CCn1cc(S(=O)(=O)N2CCN(CC(C)C)C(c3cc4cnn(-c5ccc(F)cc5)c4cc3C)C2)cn1 (single isomer, unassigned) [Example 55, 5-(4-((1-ethyl-1H-pyrazol-4-yl)sulfonyl)-1-isobutylpiperazin-2-yl)-1-(4-fluorophenyl)-6-methyl-1H-indazole]
7.57	Cc1cc2c(cnn2-c2ccc(F)cc2)cc1C1CN(S(=O)(=O)c2cnn(CC(F)(F)F)c2)CCN1CC(C)C (single isomer, unassigned) [Example 110, 1-(4-fluorophenyl)-5-(1-isobutyl-4-((1-(2,2,2-trifluoroethyl)-1H-pyrazol-4-yl)sulfonyl)piperazin-2-yl)-6-methyl-1H-indazole]
7.66	Cc1cc2c(cnn2-c2ccc(F)cc2)cc1C1CN(S(=O)(=O)c2cnn(C(F)F)c2)CCN1CC(C)C (single isomer, unassigned) [Example 59, 5-(4-((1-(difluoromethyl)-1H-pyrazol-4-yl)sulfonyl)-1-isobutylpiperazin-2-yl)-1-(4-fluorophenyl)-6-methyl-1H-indazole]
7.72	Cc1cc2c(cnn2-c2ccc(F)cc2)cc1C1CN(S(=O)(=O)c2ccccn2)CCN1CC(C)C(F)(F)F (single isomer, unassigned) [Example 150, 1-(4-fluorophenyl)-6-methyl-5-(4-(pyridin-2-ylsulfonyl)-1-(3,3,3-trifluoro-2-methylpropyl)piperazin-2-yl)-1H-indazole]
7.89	Cc1cc2c(cnn2-c2ccc(F)cc2)cc1[C@@H]1CN(S(=O)(=O)c2cnn(C)n2)CCN1CC(C)C(F)(F)F (single isomer, unassigned) [Example 23]
